Measured values published in US8633206B2, “Pyrrolo[2,3-D]pyrimidine compounds” (Pfizer Inc., priority 2009, dated 2014).

Assays:
Type in all cases: biochemical
[1] = molecular target: JAK3 (Homo sapiens (Human), UniProt P52333); assay: JAK enzymatic assay (peptide mobility shift), JAK3; settings: recombinant JAK3 1 nM, JAKtide peptide, 90 minutes
[2] = molecular target: JAK2 (Homo sapiens (Human), UniProt O60674); assay: JAK enzymatic assay (peptide mobility shift), JAK2; settings: recombinant JAK2 2 nM, JAKtide peptide, 150 minutes
[3] = molecular target: JAK1 (Homo sapiens (Human), UniProt P23458); assay: JAK enzymatic assay (peptide mobility shift), JAK1; settings: recombinant JAK1 20 nM, IRS-1 peptide, 240 minutes
JAK1, sequence (P23458 whole entry): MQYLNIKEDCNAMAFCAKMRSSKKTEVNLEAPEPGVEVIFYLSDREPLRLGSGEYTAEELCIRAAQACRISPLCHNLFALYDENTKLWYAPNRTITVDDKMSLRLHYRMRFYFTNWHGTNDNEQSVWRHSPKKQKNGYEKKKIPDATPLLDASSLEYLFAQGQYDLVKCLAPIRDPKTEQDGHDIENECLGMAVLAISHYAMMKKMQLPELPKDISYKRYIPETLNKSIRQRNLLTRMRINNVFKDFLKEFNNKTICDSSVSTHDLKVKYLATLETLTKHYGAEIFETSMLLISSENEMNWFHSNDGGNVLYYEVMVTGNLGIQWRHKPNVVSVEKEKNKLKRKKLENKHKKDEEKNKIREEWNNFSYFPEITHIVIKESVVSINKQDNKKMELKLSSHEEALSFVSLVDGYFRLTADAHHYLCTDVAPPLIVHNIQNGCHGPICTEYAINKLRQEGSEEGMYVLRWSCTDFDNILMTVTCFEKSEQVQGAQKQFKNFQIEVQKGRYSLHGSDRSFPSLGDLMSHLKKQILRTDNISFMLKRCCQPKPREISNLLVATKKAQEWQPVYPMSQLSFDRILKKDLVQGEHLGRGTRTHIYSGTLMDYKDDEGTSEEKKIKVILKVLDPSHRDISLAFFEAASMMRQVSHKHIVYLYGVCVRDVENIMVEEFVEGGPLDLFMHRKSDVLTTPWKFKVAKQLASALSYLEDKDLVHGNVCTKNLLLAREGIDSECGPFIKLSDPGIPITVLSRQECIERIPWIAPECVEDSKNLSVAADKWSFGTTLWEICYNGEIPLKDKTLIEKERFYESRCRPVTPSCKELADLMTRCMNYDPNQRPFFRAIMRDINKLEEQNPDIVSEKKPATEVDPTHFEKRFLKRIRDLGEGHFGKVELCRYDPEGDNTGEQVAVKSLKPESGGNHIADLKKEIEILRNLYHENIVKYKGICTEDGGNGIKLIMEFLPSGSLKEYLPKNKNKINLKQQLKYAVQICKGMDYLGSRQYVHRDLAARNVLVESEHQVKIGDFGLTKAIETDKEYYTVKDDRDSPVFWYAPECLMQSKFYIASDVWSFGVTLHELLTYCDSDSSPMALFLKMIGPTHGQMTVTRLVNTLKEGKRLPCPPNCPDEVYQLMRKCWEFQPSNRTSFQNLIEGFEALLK

JAK2, sequence (O60674 808-1132): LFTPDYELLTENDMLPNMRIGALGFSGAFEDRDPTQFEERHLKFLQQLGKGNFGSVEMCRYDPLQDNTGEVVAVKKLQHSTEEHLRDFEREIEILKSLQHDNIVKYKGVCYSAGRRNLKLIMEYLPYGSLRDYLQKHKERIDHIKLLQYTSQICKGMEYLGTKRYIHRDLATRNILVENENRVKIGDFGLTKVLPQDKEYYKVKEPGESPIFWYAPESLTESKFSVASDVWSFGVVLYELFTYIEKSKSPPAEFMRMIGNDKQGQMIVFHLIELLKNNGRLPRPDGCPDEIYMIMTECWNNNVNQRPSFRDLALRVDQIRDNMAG
JAK3, sequence (P52333 781-1124): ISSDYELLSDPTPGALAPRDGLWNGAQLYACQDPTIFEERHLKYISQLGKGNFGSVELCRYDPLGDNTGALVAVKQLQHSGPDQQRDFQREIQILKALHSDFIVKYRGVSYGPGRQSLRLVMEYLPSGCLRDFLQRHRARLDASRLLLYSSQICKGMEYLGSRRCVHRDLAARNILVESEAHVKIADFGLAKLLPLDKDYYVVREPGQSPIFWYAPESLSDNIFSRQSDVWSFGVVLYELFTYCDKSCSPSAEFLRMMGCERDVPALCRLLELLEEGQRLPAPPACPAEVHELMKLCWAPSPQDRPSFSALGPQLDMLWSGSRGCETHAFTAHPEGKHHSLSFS

Row | SMILES | IC50 [1] [nM] | IC50 [2] [nM] | IC50 [3] [nM]
1 | CN(c1ncnc2[nH]ccc12)[C@H]1CC[C@H](CS(=O)(=O)N2CC(c3ncccn3)C2)CC1 [Example 110, N-methyl-N-(trans-4-{[(3-pyrimidin-2-ylazetidin-1-yl)sulfonyl]methyl}cyclo-hexyl)-7H-pyrrolo[2,3-d]pyrimidin-4-amine] | 294 | 22.6 | 16.4
2 | CN(c1ncnc2[nH]ccc12)[C@H]1CC[C@H](CS(=O)(=O)N2CC(S(=O)(=O)c3ccccc3)C2)CC1 [Example 114, N-methyl-N-[trans-4-({[3-(phenylsulfonyl)azetidin-l-yl]sulfonyl}methyl)cyclo-hexyl]-7H-pyrrolo[2,3-d]-pyrimidin-4-amine] | 63 | 9.2 | 3.05
3 | Cc1ccc(N2CCN(S(=O)(=O)C[C@H]3CC[C@H](N(C)c4ncnc5[nH]ccc45)CC3)CC2)nc1 [Example 118, N-methyl-N-[trans-4-({[4-(5-methylpyridin-2-yl)piperazin-1-yl]sulfonyl}-methyl)cyclohexyl]-7H-pyrrolo[2,3-d]pyrimidin-4-amine] | 255 | 50.8 | 16.7
4 | Cc1cccc(N2CCN(S(=O)(=O)C[C@H]3CC[C@H](N(C)c4ncnc5[nH]ccc45)CC3)CC2)n1 [Example 119, N-methyl-N-[trans-4-({[4-(6-methylpyridin-2-yl)piperazin-1-yl]sulfonyl}-methyl)cyclohexyl]-7H-pyrrolo[2,3-d]pyrimidin-4-amine] | 88.9 | 13.7 | 6.48
5 | CN(c1ncnc2[nH]ccc12)[C@H]1CC[C@H](CS(=O)(=O)N2CCN(c3ncccc3C(=O)NC3CC3)CC2)CC1 [Example 121, N-cyclopropyl-2-{4-[({trans-4-[methyl(7H-pyrrolo[2,3-d]pyrimidin-4-yl)amino]-cyclohexyl}methyl)sulfonyl]piperazin-1yl}nicotinamide] | 595 | 43.1 | 10.4
6 | CN(c1ncnc2[nH]ccc12)[C@H]1CC[C@H](CS(=O)(=O)N2CCN(c3ncccc3C#N)CC2)CC1 [Example 122, 2-{4-[({trans-4-[methyl(7H-pyrrolo[2,3-d]pyrimidin-4-yl)amino]cyclohexyl}-methyl)sulfonyl]piperazin-1-yl}nicotinonitrile] | 271 | 17.6 | 12.1
7 | CN(c1ncnc2[nH]ccc12)[C@H]1CC[C@H](CS(=O)(=O)N2CCN(Cc3ccccn3)CC2)CC1 [Example 123, N-methyl-N-[trans-4-({[4-(pyridin-2-ylmethyl)-piperazin-1-yl]sulfonyl}-methyl)cyclohexyl]-7H-pyrrolo[2,3-d]pyrimidin-4-amine] | 323 | 49.8 | 13.7
8 | C[C@@H]1C[C@@H](CS(=O)(=O)N2CCC[C@@H](O)C2)CC[C@@H]1N(C)c1ncnc2[nH]ccc12 [Example 129, (3R)-1-[({(1S,3R,4S)-3-methyl-4-[methyl(7H-pyrrolo[2,3-d]pyrimidin-4-yl)amino]cyclohexyl}-methyl)sulfonyl]piperidin-3-ol] | 19.4 | 6.89 | 1.7
9 | C[C@@H]1C[C@@H](CS(=O)(=O)N2CCC[C@H](O)C2)CC[C@@H]1N(C)c1ncnc2[nH]ccc12 [Example 131, (3S)-1-[({(1S,3R,4S)-3-methyl-4-[methyl(7H-pyrrolo[2,3-d]pyrimidin-4-yl)amino]cyclohexyl}methyl)-sulfonyl]piperidin-3-ol] | 32.5 | 12 | 5.28
10 | CC(C)COC1CCCN(S(=O)(=O)C[C@H]2CC[C@H](N(C)c3ncnc4[nH]ccc34)CC2)C1 (stereo partly drawn) [Example 138, N-(trans-4-{[(3-isobutoxypiperidin-1-yl)sulfonyl]methyl}cyclohexyl)-N-methyl-7H-pyrrolo[2,3-d]pyrimidin-4-amine] | 0.132 | 0.00767 | 0.00133
11 | CCOP(=O)(OCC)O[C@@H]1CCCN(S(=O)(=O)C[C@H]2CC[C@H](N(C)c3ncnc4[nH]ccc34)CC2)C1 [Example 140, Diethyl (3R)-1-[({trans-4-[methyl(7H-pyrrolo[2,3-d]pyrimidin-4-yl)amino]cyclohexyl}methyl)sulfonyl]piperidin-3-yl phosphate] | 1.8 | 0.116 | 0.0235

Next, values leading:

Row | IC50 [1] [nM] | IC50 [2] [nM] | IC50 [3] [nM] | SMILES
12 | 289 | 39.4 | 14.3 | CN(c1ncnc2[nH]ccc12)[C@H]1CC[C@H](CS(=O)(=O)N2CCC2)CC1 [Example 109, N-{trans-4-[(azetidin-1-ylsulfonyl)methyl]cyclo-hexyl}-N-methyl-7H-pyrrolo[2,3-d]pyrimidin-4-amine]
13 | 111 | 9.99 | 1.55 | CN(c1ncnc2[nH]ccc12)[C@H]1CC[C@H](CS(=O)(=O)N2CC(c3nnn[nH]3)C2)CC1 [Example 113, N-methyl-N-[trans-4-({[3-(1H-tetrazol-5-yl)azetidin-1-yl]sulfonyl}methyl)-cyclohexyl]-7H-pyrrolo[2,3-d]pyrimidin-4-amine]
14 | 303 | 34.4 | 10.7 | CN(c1ncnc2[nH]ccc12)[C@H]1CC[C@H](CS(=O)(=O)N2CC(O)C2)CC1 [Example 115, 1-[({trans-4-[methyl(7H-pyrrolo[2,3-d]pyrimidin-4-yl)amino]cyclohexyl}-methyl)sulfonyl]azetidin-3-ol]
15 | 298 | 49.9 | 10.7 | CN(c1ncnc2[nH]ccc12)[C@H]1CC[C@H](CS(=O)(=O)N2CC(S(=O)(=O)CC3CC3)C2)CC1 [Example 116, N-{trans-4-[({3-[(cyclopropylmethyl)-sulfonyl]azetidin-1-yl}sulfonyl)methyl]cyclo-hexyl}-N-methyl-7H-pyrrolo[2,3-d]pyrimidin-4-amine]
16 | 382 | 32.4 | 11 | COC(=O)NC1CN(S(=O)(=O)C[C@H]2CC[C@H](N(C)c3ncnc4[nH]ccc34)CC2)C1 [Example 117, methyl {1-[({trans-4-[methyl(7H-pyrrolo[2,3-d]pyrimidin-4-yl)amino]-cyclohexyl}methyl)sulfonyl]azetidin-3-yl}carbamate]
17 | 208 | 22.3 | 8.43 | CN(c1ncnc2[nH]ccc12)[C@H]1CC[C@H](CS(=O)(=O)N2CCN(c3ccccn3)CC2)CC1 [Example 120, N-methyl-N-(trans-4-{[(4-pyridin-2-ylpiperazin-1-yl)sulfonyl]methyl}cyclo-hexyl)-7H-pyrrolo[2,3-d]-pyrimidin-4-amine]
18 | 122 | 29.5 | 8.8 | CN(c1ncnc2[nH]ccc12)[C@H]1CC[C@H](CS(=O)(=O)N2CCSC2)CC1 [Example 124, N-methyl-N-{trans-4-[(1,3-thiazolidin-3-ylsulfonyl)-methyl]cyclohexyl}-7H-pyrrolo[2,3-d]pyrimidin-4-amine]
19 | 1000 | 62.5 | 14.4 | CN(c1ncnc2[nH]ccc12)[C@H]1CC[C@H](CS(=O)(=O)N2CCCC3(CNC(=O)C3)C2)CC1 (stereo partly drawn) [Example 127, 7-[({trans-4-[methyl(7H-pyrrolo[2,3-d]pyrimidin-4-yl)amino]cyclohexyl}-methyl)sulfonyl]-2,7-diazaspiro[4.5]decan-3-one]
20 | 3.89 | 0.129 | 0.0227 | CN(c1ncnc2[nH]ccc12)[C@H]1CC[C@H](CS(=O)(=O)N2CCC[C@@H](OC(=O)C(C)(C)C)C2)CC1 [Example 134, trans-(R)-1-((4-(methyl(7H-pyrrolo[2,3-d]pyrimidin-4-yl)amino)cyclohexyl)methylsulfonyl)piperidin-3-yl pivalate]
21 | 0.198 | 0.0165 | 0.00199 | C[C@H]1CN(S(=O)(=O)C[C@H]2CC[C@H](N(C)c3ncnc4[nH]ccc34)CC2)C[C@@H]1CO [Example 135, {(3r,4r)-4-methyl-1-[({trans-4-[methyl(7H-pyrrolo[2,3-d]pyrimidin-4-yl)amino]cyclohexyl}methyl)sulfonyl]pyrrolidin-3-yl}methanol]
22 | 1.29 | 0.109 | 0.0245 | CN1CCN(S(=O)(=O)C[C@H]2CC[C@H](N(C)c3ncnc4[nH]ccc34)CC2)CC1 [Example 136, N-methyl-N-(trans-4-{[(4-methylpiperazin-1-yl)sulfonyl]methyl}cyclohexyl)-7H-pyrrolo[2,3-d]pyrimidin-4-amine]
23 | 0.0368 | 0.00405 | 0.00125 | COCCOC1CCCN(S(=O)(=O)C[C@H]2CC[C@H](N(C)c3ncnc4[nH]ccc34)CC2)C1 (stereo partly drawn) [Example 139, N-[trans-4-({[3-(2-methoxyethoxy)piperidin-1-yl]sulfonyl}methyl)cyclohexyl]-N-methyl-7H-pyrrolo[2,3-d]pyrimidin-4-amine]
24 | 0.768 | 0.106 | 0.0263 | CN(c1ncnc2[nH]ccc12)[C@H]1CC[C@H](CS(=O)(=O)N2CCC[C@@H](OP(=O)(O)O)C2)CC1 [Example 141, (3R)-1-[({trans-4-[methyl(7H-pyrrolo[2,3-d]pyrimidin-4-yl)amino]cyclohexyl}methyl)sulfonyl]piperidin-3-yl dihydrogen phosphate]
